# Test results published in US20060069132A1, “Azolecarboxamide herbicides” (priority 2004, published 2006).
# Assays:
# Assay in all cases: Test E pre-/postemergence herbicide test
# bermudagrass = assay type: in vivo, Cynodon dactylon
# From the text: (§1) Seeds of plant species selected from bipinnate beggarticks (Bidens bipinnata L.), hairy beggarticks (Bidens radiata Thuill.), bermudagrass (Cynodon dactylon (L.) Pers.), Surinam grass (Urochloa decumbens (Staph) R. D. Webster, previously named Brachiaria decumbens Stapf), large crabgrass (Digitaria sanguinalis (L.) Scop.), green foxtail (Setaria viridis (L.) P. Beauv.), goosegrass (Eleusine indica (L.) Gaertn.), johnsongrass (Sorghum halepense (L.) Pers.), kochia (Kochia scoparia (L.) Schrad.), pitted morningglory (Ipomoea lacunosa L.), purple nutsedge (Cyperus rotundus L.), common ragweed (Ambrosia elatior L.), mustard (Brassica nigra (L.) W. D. J. Koch), guineagrass (Panicum maximum Jacq.), dallisgrass (Paspalum dilatatum Poir.), barnyardgrass (Echinochloa crus-galli (L). P. Beauv.), southern sandbur (Cenchrus echinatus L.), common sowthistle (Sonchus oleraceous L.), prickly sida (Sida spinosa L.), Italian ryegrass (Lolium multiflorum Lam.), common purslane (Portulaca oleracea L.), broadleaf signalgrass (Brachiaria platyphylla (Griseb.) Nash), common groundsel (Senecio vulgaris L.), common chickweed (Stellaria media (L.) Vill/Cyr.), tropical spiderwort (Commelina benghalensis L.), annual bluegrass (Poa annua L.), downy bromegrass (Bromus tectorum L.), itchgrass (Rottboellia cochinchinensis (L.) L.f.), quackgrass (Elytrigia repens (L.) Nevski), Canada horseweed (Erigeron Canadensis L.), field bindweed (Convolvulus arvensis L.), spotted spurge (Euphorbia maculata L.), common mallow (Malva sylvestris (=s silvestris) L.), and Russian thistle (Salsola kali L. ssp. Ruthenica (Iljin) Soo) were planted and treated preemergence with test chemicals formulated in a non-phytotoxic solvent mixture which included a surfactant.
# (§2) At the same time, plants selected from these weed species were treated with postemergence applications of some of the test chemicals formulated in the same manner. Plants ranged in height from 2 to 18 cm (1- to 4-leaf stage) for postemergence treatments. Treated plants and controls were maintained in a greenhouse for 12 to 14 days, after which time all species were compared to controls and visually evaluated. Plant response ratings, summarized in Table E, are based on a scale of 0 to 100 where 0 is no effect and 100 is complete control. A dash (-) response means no test result.
# green foxtail = assay type: in vivo, Setaria viridis
# From the text: as §1, §2
# common ragweed = assay type: in vivo, Ambrosia elatior
# From the text: as §1, §2
# guineagrass = assay type: in vivo, Panicum maximum
# From the text: as §1, §2
# dallisgrass = assay type: in vivo, Paspalum dilatatum
# From the text: as §1, §2
# barnyardgrass = assay type: in vivo, Echinochloa crus-galli
# From the text: as §1, §2
# southern sandbur = assay type: in vivo, Cenchrus echinatus
# From the text: as §1, §2
# common sowthistle = assay type: in vivo, Sonchus oleraceous
# From the text: as §1, §2
# Italian ryegrass = assay type: in vivo, Lolium multiflorum
# From the text: as §1, §2
# broadleaf signalgrass = assay type: in vivo, Brachiaria platyphylla
# From the text: as §1, §2
# common chickweed = assay type: in vivo, Stellaria media
# From the text: as §1, §2
# quackgrass = assay type: in vivo, Elytrigia repens
# From the text: as §1, §2
# field bindweed = assay type: in vivo, Convolvulus arvensis
# From the text: as §1, §2
# common mallow = assay type: in vivo, Malva sylvestris
# From the text: as §1, §2
# Russian thistle = assay type: in vivo, Salsola kali
# From the text: as §1, §2
# [1] = Postemergence, 500 g ai/ha, scale 0 to 100
# [2] = Postemergence, 250 g ai/ha, scale 0 to 100
# [3] = Preemergence, 62 g ai/ha, scale 0 to 100
# [4] = Preemergence, 125 g ai/ha, scale 0 to 100
# [5] = Preemergence, 250 g ai/ha, scale 0 (no effect) to 100 (complete control)
# [6] = Preemergence, 500 g ai/ha, scale 0 (no effect) to 100 (complete control)
# [7] = postemergence, 125 g ai/ha, scale 0 to 100
smiles,measurement,setting,value
CCNC(=O)c1ccnc(NC(=O)c2cc(C(C)(C)C)nn2CC)c1 [Compound 152],"Plant response rating, Bermudagrass",bermudagrass; [1],75
same,"Plant response rating, Bermudagrass",bermudagrass; [2],75
same,"Plant response rating, Bermudagrass",bermudagrass; [3],70
same,"Plant response rating, Bermudagrass",bermudagrass; [4],90
same,"Plant response rating, Bermudagrass",bermudagrass; [5],95
same,"Plant response rating, Bermudagrass",bermudagrass; [6],95
same,"Plant response rating, Bermudagrass",bermudagrass; [7],40
same,"Plant response rating, Foxtail, Green",green foxtail; [1],85
same,"Plant response rating, Foxtail, Green",green foxtail; [2],85
same,"Plant response rating, Foxtail, Green",green foxtail; [3],20
same,"Plant response rating, Foxtail, Green",green foxtail; [4],70
same,"Plant response rating, Foxtail, Green",green foxtail; [5],85
same,"Plant response rating, Foxtail, Green",green foxtail; [6],100
same,"Plant response rating, Foxtail, Green",green foxtail; [7],40
same,"Plant response rating, Ragweed",common ragweed; [1],75
same,"Plant response rating, Ragweed",common ragweed; [2],60
same,"Plant response rating, Ragweed",common ragweed; [3],20
same,"Plant response rating, Ragweed",common ragweed; [4],60
same,"Plant response rating, Ragweed",common ragweed; [5],80
same,"Plant response rating, Ragweed",common ragweed; [6],80
same,"Plant response rating, Ragweed",common ragweed; [7],50
same,"Plant response rating, Guineagrass",guineagrass; [1],80
same,"Plant response rating, Guineagrass",guineagrass; [2],70
same,"Plant response rating, Guineagrass",guineagrass; [3],20
same,"Plant response rating, Guineagrass",guineagrass; [4],50
same,"Plant response rating, Guineagrass",guineagrass; [5],80
same,"Plant response rating, Guineagrass",guineagrass; [6],100
same,"Plant response rating, Dallisgrass",dallisgrass; [1],75
same,"Plant response rating, Dallisgrass",dallisgrass; [2],75
same,"Plant response rating, Dallisgrass",dallisgrass; [3],50
same,"Plant response rating, Dallisgrass",dallisgrass; [4],80
same,"Plant response rating, Dallisgrass",dallisgrass; [5],85
same,"Plant response rating, Dallisgrass",dallisgrass; [6],95
same,"Plant response rating, Dallisgrass",dallisgrass; [7],30
same,"Plant response rating, Barnyardgrass",barnyardgrass; [1],75
same,"Plant response rating, Barnyardgrass",barnyardgrass; [2],75
same,"Plant response rating, Barnyardgrass",barnyardgrass; [3],60
same,"Plant response rating, Barnyardgrass",barnyardgrass; [4],75
same,"Plant response rating, Barnyardgrass",barnyardgrass; [5],85
same,"Plant response rating, Barnyardgrass",barnyardgrass; [6],90
same,"Plant response rating, Barnyardgrass",barnyardgrass; [7],50
same,"Plant response rating, Sandbur",southern sandbur; [1],100
same,"Plant response rating, Sandbur",southern sandbur; [2],40
same,"Plant response rating, Sandbur",southern sandbur; [3],10
same,"Plant response rating, Sandbur",southern sandbur; [4],30
same,"Plant response rating, Sandbur",southern sandbur; [5],70
same,"Plant response rating, Sandbur",southern sandbur; [6],80
same,"Plant response rating, Sandbur",southern sandbur; [7],20
same,"Plant response rating, Sowthistle",common sowthistle; [1],100
same,"Plant response rating, Sowthistle",common sowthistle; [2],90
same,"Plant response rating, Sowthistle",common sowthistle; [3],80
same,"Plant response rating, Sowthistle",common sowthistle; [4],80
same,"Plant response rating, Sowthistle",common sowthistle; [5],95
same,"Plant response rating, Sowthistle",common sowthistle; [6],95
same,"Plant response rating, Ryegrass, Italian",Italian ryegrass; [1],90
same,"Plant response rating, Ryegrass, Italian",Italian ryegrass; [2],90
same,"Plant response rating, Ryegrass, Italian",Italian ryegrass; [3],20
same,"Plant response rating, Ryegrass, Italian",Italian ryegrass; [4],50
same,"Plant response rating, Ryegrass, Italian",Italian ryegrass; [5],80
same,"Plant response rating, Ryegrass, Italian",Italian ryegrass; [6],95
same,"Plant response rating, Ryegrass, Italian",Italian ryegrass; [7],90
same,"Plant response rating, Signalgrass",broadleaf signalgrass; [1],70
same,"Plant response rating, Signalgrass",broadleaf signalgrass; [2],60
same,"Plant response rating, Signalgrass",broadleaf signalgrass; [3],10
same,"Plant response rating, Signalgrass",broadleaf signalgrass; [4],40
same,"Plant response rating, Signalgrass",broadleaf signalgrass; [5],70
same,"Plant response rating, Signalgrass",broadleaf signalgrass; [6],80
same,"Plant response rating, Signalgrass",broadleaf signalgrass; [7],20
same,"Plant response rating, Chickweed",common chickweed; [1],100
same,"Plant response rating, Chickweed",common chickweed; [3],90
same,"Plant response rating, Chickweed",common chickweed; [4],95
same,"Plant response rating, Chickweed",common chickweed; [5],100
same,"Plant response rating, Chickweed",common chickweed; [6],100
same,"Plant response rating, Quackgrass",quackgrass; [1],80
same,"Plant response rating, Quackgrass",quackgrass; [2],80
same,"Plant response rating, Quackgrass",quackgrass; [3],10
same,"Plant response rating, Quackgrass",quackgrass; [4],20
same,"Plant response rating, Quackgrass",quackgrass; [5],50
same,"Plant response rating, Quackgrass",quackgrass; [6],60
same,"Plant response rating, Quackgrass",quackgrass; [7],70
same,"Plant response rating, Bindweed, Field",field bindweed; [1],50
same,"Plant response rating, Bindweed, Field",field bindweed; [2],30
same,"Plant response rating, Bindweed, Field",field bindweed; [3],10
same,"Plant response rating, Bindweed, Field",field bindweed; [4],20
same,"Plant response rating, Bindweed, Field",field bindweed; [5],60
same,"Plant response rating, Bindweed, Field",field bindweed; [6],90
same,"Plant response rating, Bindweed, Field",field bindweed; [7],30
same,"Plant response rating, Mallow",common mallow; [1],50
same,"Plant response rating, Mallow",common mallow; [2],50
same,"Plant response rating, Mallow",common mallow; [3],40
same,"Plant response rating, Mallow",common mallow; [4],80
same,"Plant response rating, Mallow",common mallow; [5],90
same,"Plant response rating, Mallow",common mallow; [6],90
same,"Plant response rating, Thistle",Russian thistle; [1],80
same,"Plant response rating, Thistle",Russian thistle; [2],80
same,"Plant response rating, Thistle",Russian thistle; [3],20
same,"Plant response rating, Thistle",Russian thistle; [4],20
same,"Plant response rating, Thistle",Russian thistle; [6],100
